Data from ChEMBL document CHEMBL1201862, “PubChem BioAssay data set” (2004).
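Following 48 hours of exposure in 96-well plates, responses at five concentrations were used to interpolate endpoints linearly. The concentration for 50% growth inhibition is given as GI50.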 The source made the active and inactive calls. No stated cut-off is given here; in the data, active = GI50 up to about 1.1 µM and inactive = higher.

Columns and labels:
Assay in all cases: growth of human tumour cells (NCI), 48 h
KM-20L2 = system: KM-20L2
Malme-3M = system: Malme-3M
LOX IMVI = system: LOX IMVI
SR = system: SR
HOP-62 = system: HOP-62
SNB-19 = system: SNB-19
COLO 205 = system: COLO 205
A498 = system: A498
UACC-257 = system: UACC-257
MOLT-4 = system: MOLT-4
ACHN = system: ACHN
SW-620 = system: SW-620
SK-MEL-28 = system: SK-MEL-28
NCI-H226 = system: NCI-H226
MCF7 = system: MCF7
T47D = system: T47D
MDA-MB-231 = system: MDA-MB-231
BT-549 = system: BT-549
MDA-N = system: MDA-N
NCI/ADR-RES = system: NCI/ADR-RES

Measured: GI50

O=[N+]([O-])c1ccc(C(O)/C(=N/O)c2nc3ccc(Cl)cc3nc2O)cc1 (configuration not stated)
inactive: KM-20L2 > 100 µM | Malme-3M > 100 µM | LOX IMVI > 100 µM | SR > 100 µM | HOP-62 > 100 µM | SNB-19 > 100 µM | COLO 205 > 100 µM | A498 > 100 µM | UACC-257 > 100 µM | MOLT-4 > 100 µM | ACHN > 100 µM | SW-620 > 100 µM

CCOC(=O)CCCO
inactive: KM-20L2 > 100 µM | Malme-3M > 100 µM | LOX IMVI > 100 µM | SK-MEL-28 > 100 µM | SR > 100 µM | SNB-19 > 100 µM | A498 > 100 µM | UACC-257 > 100 µM | MOLT-4 > 100 µM | ACHN > 100 µM | SW-620 > 100 µM

COc1cc([C@@H]2c3cc4c(cc3[C@@H](OC(=O)c3ccc(N)cc3)C3COC(=O)[C@@H]32)OCO4)cc(OC)c1O (some centres not stated)
inactive: KM-20L2 1.88 µM | NCI-H226 6.97 µM | Malme-3M 12.3 µM | LOX IMVI 10.6 µM | SK-MEL-28 9.48 µM | HOP-62 3.5 µM | SNB-19 20.7 µM | COLO 205 5.98 µM | A498 5.82 µM | UACC-257 9.14 µM | MOLT-4 3.1 µM | ACHN 7.74 µM | SW-620 5.71 µM

CCSC(=O)C1(C)OC2CCCCC2C1=O (configuration not stated)
inactive: KM-20L2 > 100 µM | NCI-H226 > 100 µM | Malme-3M > 100 µM | SK-MEL-28 > 100 µM | SR > 100 µM | HOP-62 > 100 µM | SNB-19 > 100 µM | COLO 205 > 100 µM | A498 > 100 µM | UACC-257 > 100 µM | MOLT-4 > 100 µM | ACHN > 100 µM | SW-620 > 100 µM

NC12CC3CC(C1)CC(C(=O)O)(C3)C2
inactive: KM-20L2 > 100 µM | LOX IMVI > 100 µM | SK-MEL-28 > 100 µM | SR > 100 µM | HOP-62 > 100 µM | SNB-19 > 100 µM | A498 > 100 µM | UACC-257 > 100 µM | MOLT-4 > 100 µM | ACHN > 100 µM | SW-620 > 100 µM

CCN1C(=O)C(N=[N+]=[N-])(c2ccccc2)C(=O)c2ccccc21 (configuration not stated)
inactive: KM-20L2 > 100 µM | NCI-H226 46.7 µM | Malme-3M 67 µM | LOX IMVI > 100 µM | SK-MEL-28 > 100 µM | SR 36.3 µM | HOP-62 > 100 µM | SNB-19 > 100 µM | COLO 205 > 100 µM | UACC-257 46.6 µM | MOLT-4 43.1 µM | ACHN > 100 µM | SW-620 > 100 µM

O=C(Nc1cccc2c1C(=O)c1c(NC(=O)c3ccccc3)ccc(Nc3cccc4c3C(=O)c3ccccc3C4=O)c1C2=O)c1ccccc1
inactive: KM-20L2 > 100 µM | NCI-H226 > 100 µM | Malme-3M > 100 µM | SK-MEL-28 > 100 µM | SR > 100 µM | HOP-62 > 100 µM | SNB-19 > 100 µM | COLO 205 > 100 µM | A498 > 100 µM | UACC-257 > 100 µM | MOLT-4 > 100 µM | ACHN > 100 µM | SW-620 > 100 µM

Cc1nc(-n2nc(-c3ccccc3)cc2-c2ccccc2)sc1C(=O)/C=C/c1ccc(/C=C/C(=O)c2sc(-n3nc(-c4ccccc4)cc3-c3ccccc3)nc2C)cc1
inactive: KM-20L2 19.1 µM | NCI-H226 26.8 µM | Malme-3M 19.1 µM | LOX IMVI 20 µM | SK-MEL-28 19.5 µM | SR 27.2 µM | HOP-62 23.6 µM | SNB-19 21.8 µM | COLO 205 20.2 µM | UACC-257 21 µM | MOLT-4 25.1 µM | ACHN 19.9 µM | SW-620 34.8 µM

O=C1CC(c2c[nH]c3ccccc23)C(=O)N1c1ccccc1 (configuration not stated)
inactive: KM-20L2 > 100 µM | NCI-H226 > 100 µM | Malme-3M > 100 µM | SK-MEL-28 > 100 µM | HOP-62 > 100 µM | A498 > 100 µM | UACC-257 > 100 µM | MOLT-4 > 100 µM | ACHN > 100 µM | SW-620 > 100 µM

O=C(c1nc2ccccc2nc1O)C(O)c1ccco1 (configuration not stated)
inactive: KM-20L2 56.5 µM | NCI-H226 > 100 µM | Malme-3M > 100 µM | LOX IMVI > 100 µM | SK-MEL-28 > 100 µM | HOP-62 > 100 µM | SNB-19 > 100 µM | COLO 205 > 100 µM | UACC-257 > 100 µM | MOLT-4 > 100 µM | ACHN 54.5 µM | SW-620 > 100 µM

C=CCN1C2Cc3cc(OC)c(OC)cc3C1Cc1cc(OC)c(OC)cc12
inactive: KM-20L2 > 100 µM | Malme-3M > 100 µM | SK-MEL-28 > 100 µM | HOP-62 > 100 µM | SNB-19 > 100 µM | A498 > 100 µM | UACC-257 > 100 µM | MOLT-4 > 100 µM | ACHN > 100 µM | SW-620 > 100 µM

COc1ccc2c3c([nH]c2c1CC=C(C)C)C(=O)C=C(C)C3=O
inactive: KM-20L2 > 25 µM | NCI-H226 > 25 µM | Malme-3M 16.1 µM | SK-MEL-28 > 25 µM | SR 24.5 µM | HOP-62 > 25 µM | SNB-19 > 25 µM | COLO 205 > 25 µM | UACC-257 > 25 µM | MOLT-4 18.5 µM | ACHN > 25 µM | SW-620 > 25 µM

C/C(CC(=O)Nc1ccc([N+](=O)[O-])cc1)=N/N=C(N)N
inactive: KM-20L2 > 100 µM | NCI-H226 > 100 µM | Malme-3M > 100 µM | LOX IMVI > 100 µM | SK-MEL-28 > 100 µM | HOP-62 > 100 µM | COLO 205 > 100 µM | UACC-257 > 100 µM | MOLT-4 > 100 µM | ACHN > 100 µM | SW-620 > 100 µM

CCOC(=O)/C([O-])=C(\C(=O)OCC)[n+]1c(C)n(C)c2ccccc21
inactive: KM-20L2 > 100 µM | NCI-H226 > 100 µM | Malme-3M > 100 µM | LOX IMVI > 100 µM | SK-MEL-28 > 100 µM | HOP-62 > 100 µM | SNB-19 > 100 µM | COLO 205 > 100 µM | A498 > 100 µM | UACC-257 > 100 µM | MOLT-4 > 100 µM | SW-620 > 100 µM

Cc1ccc(SSCCCS(=O)O)cc1
inactive: KM-20L2 31.7 µM | Malme-3M > 100 µM | LOX IMVI 11.4 µM | SK-MEL-28 45.7 µM | HOP-62 29.2 µM | SNB-19 49.7 µM | COLO 205 24 µM | A498 28.1 µM | UACC-257 50.2 µM | MOLT-4 15.2 µM | ACHN 37.4 µM | SW-620 34.2 µM

O=C1CCC(=O)N1n1c(Cc2ccccc2)n[nH]c1=O
inactive: MCF7 > 100 µM | NCI-H226 > 100 µM | Malme-3M > 100 µM | T47D > 100 µM | LOX IMVI > 100 µM | MDA-MB-231 > 100 µM | SK-MEL-28 > 100 µM | SR > 100 µM | BT-549 > 100 µM | HOP-62 > 100 µM | SNB-19 > 100 µM | COLO 205 > 100 µM | A498 > 100 µM | MDA-N > 100 µM | UACC-257 > 100 µM | MOLT-4 > 100 µM | ACHN > 100 µM | NCI/ADR-RES > 100 µM | SW-620 > 100 µM
